According to PubChem BioAssay AID248 (DTP/NCI, 2004):
Toxic doses and inconclusive results are not listed.

System: L1210 leukemia ip in BDF1 mice, survival T/C
Experiment: NCI In Vivo Anticancer Drug Screen. Data for tumor model L1210 Leukemia (intraperitoneal) in B6D2F1 (BDF1) mice
Conditions: endpoint: mean survival time, higher = longer survival
Outline: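 Survival endpoint. Drug-treated group vs vehicle group, expressed as T divided by C. Tumor passaged by transplantation.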

[1] = dose: 50.0 mg/kg/injection, schedule: Q01DX001 (ip), vehicle: carboxymethylcellulose (CMC)
[2] = dose: 100.0 mg/kg/injection, schedule: Q01DX001 (ip), vehicle: carboxymethylcellulose (CMC)
[3] = dose: 200.0 mg/kg/injection, schedule: Q01DX001 (ip), vehicle: carboxymethylcellulose (CMC)
[4] = dose: 400.0 mg/kg/injection, schedule: Q01DX001 (ip), vehicle: carboxymethylcellulose (CMC)
[5] = dose: 50.0 mg/kg/injection, schedule: Q01DX009 (ip), vehicle: saline with Tween-80
[6] = dose: 100.0 mg/kg/injection, schedule: Q01DX009 (ip), vehicle: saline with Tween-80
[7] = dose: 100.0 mg/kg/injection, schedule: Q04DX003 (ip), vehicle: saline with Tween-80
[8] = dose: 200.0 mg/kg/injection, schedule: Q04DX003 (ip), vehicle: saline with Tween-80
[9] = dose: 100.0 mg/kg/injection, schedule: Q01DX009 (ip), vehicle: Klucel (hydroxypropylcellulose) (HPC)
[10] = dose: 200.0 mg/kg/injection, schedule: Q01DX009 (ip), vehicle: Klucel (hydroxypropylcellulose) (HPC)
[11] = dose: 400.0 mg/kg/injection, schedule: Q01DX009 (ip), vehicle: Klucel (hydroxypropylcellulose) (HPC)
[12] = dose: 100.0 mg/kg/injection, schedule: Q01DX001 (ip), vehicle: other
[13] = dose: 200.0 mg/kg/injection, schedule: Q01DX001 (ip), vehicle: other
[14] = dose: 100.0 mg/kg/injection, schedule: Q04DX003 (ip), vehicle: Klucel (hydroxypropylcellulose) (HPC)
[15] = dose: 200.0 mg/kg/injection, schedule: Q04DX003 (ip), vehicle: Klucel (hydroxypropylcellulose) (HPC)
[16] = dose: 400.0 mg/kg/injection, schedule: Q04DX003 (ip), vehicle: Klucel (hydroxypropylcellulose) (HPC)
[17] = dose: 100.0 mg/kg/injection, schedule: Q04DX003 (ip), vehicle: saline
[18] = dose: 75.0 mg/kg/injection, schedule: Q01DX001 (ip), vehicle: carboxymethylcellulose (CMC)
[19] = dose: 150.0 mg/kg/injection, schedule: Q01DX001 (ip), vehicle: carboxymethylcellulose (CMC)

## COc1ccc(/C=N/Nc2nnc(N/N=C/c3ccc(OC)c(O)c3)c3ccccc23)cc1O
[1]
  T/C: 103 % of control
[2]
  T/C: 103 % of control
[3]
  T/C: 103 % of control
[4]
  T/C: 100 % of control

## C[CH2][Sb]([Cl])([CH2]C)([CH2]C)[O][Sb]([Cl])([CH2]C)([CH2]C)[CH2]C
dose: 10.0 mg/kg/injection, schedule: Q01DX001 (ip), vehicle: saline
  T/C: 109 % of control
dose: 20.0 mg/kg/injection, schedule: Q01DX001 (ip), vehicle: saline
  T/C: 114 % of control
dose: 40.0 mg/kg/injection, schedule: Q01DX001 (ip), vehicle: saline
  T/C: 123 % of control

## CN1CCCN(C)C1
[5]
  T/C: 100 % of control
[6]
  T/C: 100 % of control
[7]
  T/C: 93 % of control
[8]
  T/C: 88 % of control

## COc1ccc(/C=C(/C(=O)c2ccc(OCCN3CCCC3)cc2)c2ccccc2)cc1OC
dose: 100.0 mg/kg/injection, schedule: Q04DX003 (sc), vehicle: olive oil, sesame oil, peanut oil
  T/C: 101 % of control
dose: 200.0 mg/kg/injection, schedule: Q04DX003 (sc), vehicle: olive oil, sesame oil, peanut oil
  T/C: 98 % of control
dose: 400.0 mg/kg/injection, schedule: Q04DX003 (sc), vehicle: olive oil, sesame oil, peanut oil
  T/C: 97 % of control

## CN(C)c1ccc(/C=N/NC(=O)c2ccccc2NC(=O)c2ccccc2)cc1
[9]
  T/C: 89 % of control
[10]
  T/C: 100 % of control
[11]
  T/C: 89 % of control

## CCOc1ccccc1/C=N\NC(=S)Nc1ccc2cn[nH]c2c1
[1]
  T/C: 96 % of control
[2]
  T/C: 100 % of control
[3]
  T/C: 102 % of control
[4]
  T/C: 94 % of control

## O=C(CC(O)(C(F)(F)Cl)C(F)(F)Cl)c1cccc([N+](=O)[O-])c1
[5]
  T/C: 98 % of control
dose: 50.0 mg/kg/injection, schedule: Q04DX003 (ip), vehicle: saline with Tween-80
  T/C: 98 % of control
[6]
  T/C: 98 % of control
[7]
  T/C: 98 % of control
dose: 200.0 mg/kg/injection, schedule: Q01DX009 (ip), vehicle: saline with Tween-80
  T/C: 95 % of control
[8]
  T/C: 98 % of control
dose: 400.0 mg/kg/injection, schedule: Q04DX003 (ip), vehicle: saline with Tween-80
  T/C: 89 % of control

## C[N+]1(C)CCC(OC(=O)C(O)(c2ccccc2)C2CCCC2)C1 (stereo not drawn)
[7]
  T/C: 100 % of control

## CC(=O)CC1(O)C(=O)Nc2ccccc21 (stereo not drawn)
[9]
  T/C: 101 % of control
[10]
  T/C: 95 % of control
[11]
  T/C: 98 % of control

## CCCCCCN(CCCCCC)C(C)=O
dose: 50.0 mg/kg/injection, schedule: Q04DX003 (ip), vehicle: other
  T/C: 103 % of control
[12]
  T/C: 96 % of control
dose: 100.0 mg/kg/injection, schedule: Q04DX003 (ip), vehicle: other
  T/C: 98 % of control
[13]
  T/C: 96 % of control
dose: 200.0 mg/kg/injection, schedule: Q04DX003 (ip), vehicle: other
  T/C: 93 % of control

## NC1(C(=O)O)Cc2ccccc2C1
dose: 50.0 mg/kg/injection, schedule: Q01DX001 (ip), vehicle: olive oil, sesame oil, peanut oil
  T/C: 101 % of control
dose: 100.0 mg/kg/injection, schedule: Q01DX001 (ip), vehicle: olive oil, sesame oil, peanut oil
  T/C: 101 % of control
dose: 200.0 mg/kg/injection, schedule: Q01DX001 (ip), vehicle: olive oil, sesame oil, peanut oil
  T/C: 112 % of control
dose: 400.0 mg/kg/injection, schedule: Q01DX001 (ip), vehicle: olive oil, sesame oil, peanut oil
  T/C: 104 % of control

## CN(C)C(=S)Oc1c(Cl)cc(Cl)cc1S(=O)(=O)F
[14]
  T/C: 104 % of control
[15]
  T/C: 98 % of control
[16]
  T/C: 98 % of control

## Nc1nc(N)c2nc(CN3CCCc4cc(C(=O)NC(CCC(=O)O)C(=O)O)ccc43)cnc2n1 (stereo not drawn)
[17]
  T/C: 207 % of control

## N#CC(N)c1ccccc1 (stereo not drawn)
dose: 75.0 mg/kg/injection, schedule: Q01DX001 (ip), vehicle: saline
  T/C: 103 % of control

## CCOP(=O)(OCC)OCc1cnc(SC)nc1N
dose: 50.0 mg/kg/injection, schedule: Q01DX001 (ip), vehicle: saline
  T/C: 99 % of control
dose: 100.0 mg/kg/injection, schedule: Q01DX001 (ip), vehicle: saline
  T/C: 108 % of control

## O=[N+]([O-])/C=C\c1ccc(/C=C/[N+](=O)[O-])cc1
dose: 1.5 mg/kg/injection, schedule: Q01DX009 (ip), vehicle: other
  T/C: 95 % of control
dose: 1.5 mg/kg/injection, schedule: Q04DX003 (ip), vehicle: other
  T/C: 101 % of control
dose: 3.0 mg/kg/injection, schedule: Q01DX009 (ip), vehicle: other
  T/C: 93 % of control
dose: 3.0 mg/kg/injection, schedule: Q04DX003 (ip), vehicle: other
  T/C: 101 % of control
dose: 6.0 mg/kg/injection, schedule: Q04DX003 (ip), vehicle: other
  T/C: 98 % of control

## O=S1(=O)Cc2ccccc2-c2ccccc2C1Cl (stereo not drawn)
dose: 50.0 mg/kg/injection, schedule: Q04DX002 (ip), vehicle: Klucel (hydroxypropylcellulose) (HPC)
  T/C: 100 % of control
[9]
  T/C: 98 % of control
dose: 100.0 mg/kg/injection, schedule: Q04DX002 (ip), vehicle: Klucel (hydroxypropylcellulose) (HPC)
  T/C: 100 % of control
[10]
  T/C: 100 % of control
dose: 200.0 mg/kg/injection, schedule: Q04DX002 (ip), vehicle: Klucel (hydroxypropylcellulose) (HPC)
  T/C: 97 % of control
[11]
  T/C: 96 % of control

## CCN(CC)CCCCN(C)c1ccccc1
dose: 12.5 mg/kg/injection, schedule: Q01DX009 (ip), vehicle: saline with Tween-80
  T/C: 89 % of control
dose: 12.5 mg/kg/injection, schedule: Q04DX003 (ip), vehicle: acetone
  T/C: 93 % of control
dose: 25.0 mg/kg/injection, schedule: Q01DX009 (ip), vehicle: saline with Tween-80
  T/C: 97 % of control
dose: 25.0 mg/kg/injection, schedule: Q04DX003 (ip), vehicle: acetone
  T/C: 89 % of control
[5]
  T/C: 97 % of control
dose: 50.0 mg/kg/injection, schedule: Q04DX003 (ip), vehicle: acetone
  T/C: 98 % of control

## N#Cc1cnc(N)nc1N
dose: 50.0 mg/kg/injection, schedule: Q04DX003 (ip), vehicle: Klucel (hydroxypropylcellulose) (HPC)
  T/C: 113 % of control
[18]
  T/C: 92 % of control
dose: 75.0 mg/kg/injection, schedule: Q01DX009 (ip), vehicle: Klucel (hydroxypropylcellulose) (HPC)
  T/C: 102 % of control
[14]
  T/C: 97 % of control
[19]
  T/C: 92 % of control
dose: 150.0 mg/kg/injection, schedule: Q01DX009 (ip), vehicle: Klucel (hydroxypropylcellulose) (HPC)
  T/C: 102 % of control
[15]
  T/C: 108 % of control

## S=C(c1ccco1)N1CCOCC1
[18]
  T/C: 97 % of control
dose: 75.0 mg/kg/injection, schedule: Q01DX009 (ip), vehicle: saline with Tween-80
  T/C: 102 % of control
dose: 75.0 mg/kg/injection, schedule: Q04DX003 (ip), vehicle: saline with Tween-80
  T/C: 104 % of control
[19]
  T/C: 104 % of control
dose: 150.0 mg/kg/injection, schedule: Q01DX009 (ip), vehicle: saline with Tween-80
  T/C: 100 % of control
dose: 150.0 mg/kg/injection, schedule: Q04DX003 (ip), vehicle: saline with Tween-80
  T/C: 97 % of control
dose: 300.0 mg/kg/injection, schedule: Q01DX001 (ip), vehicle: carboxymethylcellulose (CMC)
  T/C: 98 % of control
dose: 300.0 mg/kg/injection, schedule: Q04DX003 (ip), vehicle: saline with Tween-80
  T/C: 89 % of control

## CCOC(=O)c1c2c(=O)n(C)c(=O)n(C)c2nc2c1c(=O)n(C)c(=O)n2C
dose: 50.0 mg/kg/injection, schedule: Q01DX009 (ip), vehicle: Klucel (hydroxypropylcellulose) (HPC)
  T/C: 93 % of control
[9]
  T/C: 93 % of control
[10]
  T/C: 86 % of control

## CC(=O)N(C)c1ccc(NC(=O)c2c(Br)c(Br)c(Br)c(Br)c2C(=O)O)cc1
[9]
  T/C: 98 % of control
[10]
  T/C: 89 % of control
[11]
  T/C: 105 % of control

## N#Cc1cc(C(Cl)(Cl)Cl)ccc1C(Cl)(Cl)Cl
[14]
  T/C: 97 % of control
[15]
  T/C: 95 % of control
[16]
  T/C: 90 % of control

## O=P(O)(CO)CO
[17]
  T/C: 109 % of control
dose: 200.0 mg/kg/injection, schedule: Q04DX003 (ip), vehicle: saline
  T/C: 95 % of control

## COc1ccc2nonc2c1
[12]
  T/C: 100 % of control
[13]
  T/C: 110 % of control
